Measured values reported in patent US8772226B2, “Methods and compositions for the detection of cancer” (The Johns Hopkins University, priority 2009, dated 2014).
Each block holds one compound with its values, some of them ahead of it. Starred links: 1 amine or outer side, 2 acyl side, 3 side chain; linkers in the order of their positions; H or OH if unused. Non-standard residues stand in square brackets, D forms with d. Residues, ends and D or L forms follow the SMILES beside them. No end group written: not given here. *: point of attachment. X1 = C/C=C(/C)C(=O)O[C@H]1C(C)=C2[C@H]([C@@H]1OC(=O)CCCCCCC)[C@@](C)(OC(C)=O)C[C@H](OC(=O)Cc1ccc(O)c(CCCCCN*)c1)[C@@]1(O)[C@H]2OC(=O)[C@@]1(C)O; γGlu = O=C(O)[C@H](CCC(=O)[*:2])N[*:1]; Morpholide = C1CN(*)CCO1; PhADT = not defined here; CO = O=C([*:1])[*:2]

Legend:
CWR22H tumor = test: Biodistribution in CWR22H tumor bearing mice; format: in vivo; settings: % Injected Dose/gram tissue, five days after single intravenous dose of 2 μmole (120 mg/kg) of prodrug
Protocol: FIGS. 4A and 4B are (A) selective accumulation of 12ADT-Asp and 12ADT-Asp-Glu in tumor tissue compared to indicated normal tissue five days after single intravenous dose of 2 μmole (120 mg/kg) (FIG. 4A discloses “Asp-Glu*Glu*Glu*Glu” as SEQ ID NO: 57); and (B) biodistribution of TG species (sum of 12ADT-Asp, 12ADT-Asp-Glu and 12ADT-Asp-Glu*Glu*Glu*Glu (SEQ ID NO: 57)) in CWR22H tumor bearing mice. Data presented as % Initial dose (ID)/gram and tumor/tissue ratios (n=4 mice).
In the course of developing a PSMA-activated TG therapy, a prodrug that was readily hydrolyzed by PSMA and selectively toxic to PSMA-producing human prostate cancers in vitro and in vivo was identified. Tissue levels of the TG analog (12ADT-Asp) that is released from the peptide carrier by PSMA were analyzed. See, for example, FIG. 4A.
The characterization of 12ADT-Asp is described in detail below. This TG analog is even more lipophilic than TG due to substitution of the butanoyl side chain of TG with a 12 carbon aminododecanoyl side chain. While it might have been expected to see accumulation of this highly lipophilic 12ADT-Asp in tumor tissue due to PSMA activation, the magnitude of accumulation of the free drug compared to plasma was unexpected. […]

SERCA = SERCA inhibition compared to TG (preliminary / earlier data); format: biochemical
[1] = Peptide stability to hydrolysis in human plasma; format: in vitro ADME
Source text: (§1) Some preferred peptides include a PSMA-hydrolyzable, a-linked dipeptide “cap” that are not substrates for GGH, and are more specific PSMA substrates. Combination a- and side chain-linked PSMA substrates can be highly efficient and specific. […] A number of aspartate- and glutamate-containing linkers are depicted in FIG. 1. These particular linkers can be bonded to amine groups on therapeutic drugs.

[2] = Peptide stability to hydrolysis in mouse plasma; format: in vitro ADME
Source text: as §1

[3] = Peptide stability in serum; format: in vitro ADME
Source text: as §1

LNCaP cells [4] = test: Cleavage assay with LNCaP cells, metabolites by LC/MS; format: cell-based, human; settings: 3 days culture with drug
LNCaP cells [5] = system: LNCaP cells
[6] = biological target: sarcoplasmic reticulum (SR) and endoplasmic reticulum (ER) Ca2+-ATPase (SERCA) pump; settings: SERCA pump of skeletal, cardiac, muscle and brain microsomes; read-out: apparent dissociation constant; cited from earlier work
SERCA pump = biological target: T1, SERCA pump (Oryctolagus cuniculus, UniProt P04191); test: Microsomal assay of SERCA pump inhibition compared to TG; format: biochemical
T1 construct: from tissue; host or cells: microsomes
Protocol: FIG. 6. Microsomal assay comparing inhibition of SERCA pump by compound 14 and TG over a range of concentrations.
All materials were purified by column chromatography with structure confirmed by NMR analysis and mass spectroscopy. The purified phenolic TG analog 14 was then tested in a previously described microsomal assay system to assess inhibition of the SERCA pump compared to TG, FIG. 6.

T1 sequence (P04191 1-994 isoform P04191-2): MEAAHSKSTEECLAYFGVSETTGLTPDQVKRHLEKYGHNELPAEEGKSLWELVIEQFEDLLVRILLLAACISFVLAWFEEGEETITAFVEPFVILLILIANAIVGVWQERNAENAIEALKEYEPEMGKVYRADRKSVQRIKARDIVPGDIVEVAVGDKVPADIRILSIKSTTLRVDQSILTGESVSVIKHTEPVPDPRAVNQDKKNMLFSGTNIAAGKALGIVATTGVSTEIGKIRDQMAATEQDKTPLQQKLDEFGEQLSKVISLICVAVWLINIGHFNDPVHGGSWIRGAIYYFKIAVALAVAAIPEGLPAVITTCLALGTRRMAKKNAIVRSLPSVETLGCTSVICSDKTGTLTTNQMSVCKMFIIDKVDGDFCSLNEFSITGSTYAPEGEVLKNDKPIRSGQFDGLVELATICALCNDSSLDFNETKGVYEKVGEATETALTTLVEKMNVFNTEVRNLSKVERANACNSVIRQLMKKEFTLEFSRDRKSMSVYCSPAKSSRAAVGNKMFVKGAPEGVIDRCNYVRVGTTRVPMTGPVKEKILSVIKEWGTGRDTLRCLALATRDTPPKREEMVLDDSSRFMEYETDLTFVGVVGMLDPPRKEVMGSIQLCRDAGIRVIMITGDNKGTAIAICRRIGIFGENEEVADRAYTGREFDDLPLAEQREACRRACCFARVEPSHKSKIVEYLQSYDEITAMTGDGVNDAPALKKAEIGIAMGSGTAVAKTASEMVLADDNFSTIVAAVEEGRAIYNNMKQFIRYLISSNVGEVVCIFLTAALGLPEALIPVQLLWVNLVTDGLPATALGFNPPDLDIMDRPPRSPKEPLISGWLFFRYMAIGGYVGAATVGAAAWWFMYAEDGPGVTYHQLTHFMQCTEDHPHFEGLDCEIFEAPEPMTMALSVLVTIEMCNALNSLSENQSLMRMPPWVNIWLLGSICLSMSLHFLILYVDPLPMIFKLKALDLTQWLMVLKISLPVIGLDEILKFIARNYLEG

Compound: C/C=C(/C)C(=O)O[C@H]1C(C)=C2[C@H]([C@@H]1OC(=O)CCCCCCC)[C@@](C)(OC(C)=O)C[C@H](OC(=O)CCCCCCCCCCCNC(=O)C[C@H](N)C(=O)O)[C@@]1(O)[C@H]2OC(=O)[C@@]1(C)O [12ADT-Asp]
Tumor/Kidney ratio (CWR22H tumor): 15.4
Tumor/Skeletal muscle ratio (CWR22H tumor): 20.5

Compound: C/C=C(/C)C(=O)O[C@H]1C(C)=C2[C@H]([C@@H]1OC(=O)CCCCCCC)[C@@](C)(OC(C)=O)C[C@H](OC(=O)CCCCCCCCCCCN)[C@@]1(O)[C@H]2OC(=O)[C@@]1(C)O [12ADT]
SERCA inhibition compared to TG (SERCA): as efficiently as does TG

stability to hydrolysis in plasma [1]: completely stable to hydrolysis
stability to hydrolysis in plasma [2]: completely stable to hydrolysis
Compound: N[C@@H](CC(=O)O)C(=O)N[C@@H](CCC(=O)N[C@@H](CCC(=O)N[C@@H](CC(=O)O)C(=O)N[C@@H](CCC(=O)O)C(=O)O)C(=O)O)C(=O)O [Asp-Glu*Glu*Asp-Glu] (H-D[γGlu][γGlu]DE-OH; N-terminus and C-terminus assumed)

stability in serum [3]: high stability in serum
Compound: NC(=O)CC[C@H](NC(=O)[C@H](CC(=O)O)NC(=O)CC[C@H](NC(=O)CC[C@H](NC(=O)CC[C@H](N)C(=O)O)C(=O)O)C(=O)O)C(=O)O [Glu*Glu*Glu*Asp-Gln] ({γGlu-γGlu-γGlu}-Asp-Gln-OH; N-terminus and C-terminus assumed)

stability in serum [3]: high stability in serum
Compound: N[C@@H](CCC(=O)N[C@@H](CCC(=O)N[C@@H](CCC(=O)N[C@@H](CC(=O)O)C(=O)N[C@@H](CCC(=O)O)C(=O)O)C(=O)O)C(=O)O)C(=O)O [Glu*Glu*Glu*Asp-Glu] ({γGlu-γGlu-γGlu}-Asp-Glu-OH; N-terminus and C-terminus assumed)

Compound: C/C=C(/C)C(=O)O[C@H]1C(C)=C2[C@H]([C@@H]1OC(=O)CCCCCCC)[C@@](C)(OC(C)=O)C[C@H](OC(=O)Cc1ccc(O)c(CCCCCNC(=O)[C@H](CC(C)C)NC(=O)[C@H](CCC(N)=O)NC(=O)[C@H](CC(C)C)NC(=O)[C@H](CCCCN)NC(=O)[C@H](CO)NC(=O)[C@H](CO)NC(=O)[C@H](Cc3c[nH]cn3)NC(=O)N3CCOCC3)c1)[C@@]1(O)[C@H]2OC(=O)[C@@]1(C)O [JHD9784, His-Ser-Ser-Lys-Leu-Gln-Leu-(PhADT)] ({Morpholide-CO}-HSSKLQL-X1)
cleavage of pro-drug by LNCaP cells (LNCaP cells [4]): can cleave
IC50 (LNCaP cells [5]): 2.5 nM

Compound: C/C=C(/C)C(=O)O[C@H]1C(C)=C2[C@H]([C@@H]1OC(=O)CCCCCCC)[C@@](C)(OC(C)=O)C[C@H](OC(=O)CCC)[C@@]1(O)[C@H]2OC(=O)[C@@]1(C)O [Thapsigargin]
Kd [6]: ≤ 2.2 pM

Compound: C/C=C(/C)C(=O)OC1C(C)=C2[C@H]([C@@H]1OC(=O)CCCCCCC)[C@@](C)(OC(C)=O)CC(OC(=O)CCc1cc(I)c(O)c(CCCCCNC(=O)OC(C)(C)C)c1)[C@@]1(O)[C@H]2OC(=O)[C@@]1(C)O (stereo partly shown) [compound 14]
ability to inhibit the SERCA pump (SERCA pump): maintained potent ability to inhibit the SERCA pump at nanomolar concentrations
potency of SERCA pump inhibition relative to TG (fold less potent) (SERCA pump; range of concentrations, compared to TG): approximately 4 fold

Compound: (PhADT)-Glu-yGlu-yGlu-yGlu (PhADT-E[γGlu][γGlu][γGlu]; reading uncertain) [JHD9783]
cleavage of pro-drug by LNCaP cells (LNCaP cells [4]): can cleave
